Test results taken from PubChem BioAssay (NCI).
Where “and” joins values, the source holds several entries; their conditions need not be identical. Identical values can stand only once.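 All cell lines were grown in 96-well plates and treated with compound for 48 hours. Here, GI50 denotes the concentration required for 50% inhibition of growth. TGI denotes the concentration required for complete inhibition of growth.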

Key:
Assay in all cases: DTP human tumour cell line panel, 48 h
SNB-19 CNS = test system: SNB-19 CNS
SF-295 CNS = test system: SF-295 CNS
SR leukemia = test system: SR leukemia
K-562 leukemia = test system: K-562 leukemia
EKVX NSCLC = test system: EKVX NSCLC
HOP-92 NSCLC = test system: HOP-92 NSCLC
RPMI-8226 leukemia = test system: RPMI-8226 leukemia
IGROV1 ovarian = test system: IGROV1 ovarian
HOP-62 NSCLC = test system: HOP-62 NSCLC
UACC-62 melanoma = test system: UACC-62 melanoma

Structure (SMILES) | TGI (SNB-19 CNS) | TGI (SF-295 CNS) | TGI (SR leukemia) | TGI (K-562 leukemia) | TGI (EKVX NSCLC) | TGI (HOP-92 NSCLC) | TGI (RPMI-8226 leukemia) | TGI (IGROV1 ovarian) | TGI (HOP-62 NSCLC) | TGI (UACC-62 melanoma) | GI50 (SNB-19 CNS) | GI50 (SF-295 CNS) | GI50 (SR leukemia) | GI50 (K-562 leukemia) | GI50 (EKVX NSCLC) | GI50 (RPMI-8226 leukemia) | GI50 (UACC-62 melanoma) | GI50 (HOP-92 NSCLC) | GI50 (IGROV1 ovarian) | GI50 (HOP-62 NSCLC)
CC12CCC(O)CC1CCC1C2CCC2(C)C(C3=CC(=O)OC3)CCC12O (configuration not stated) | 12.8 µM | 10.8 µM | > 100 µM | > 90.5 µM | 5.88 µM | > 41.9 µM | > 30 µM | 19.4 µM | 6.01 µM | 12.8 µM |  |  |  |  |  |  |  |  |  | 
COC(=O)[C@@H]1[C@H](O)[C@H](C)[C@H](O)[C@@](C)(O)/C=C\C=C(C)C(=O)Nc2c(C)c(OC(C)=O)c3c(c2O)C(=O)C(C)=C2OCOC(=C23)C(C)=C[C@@](C)(O)[C@H](O)[C@@H](C)[C@H]1OC(C)=O | > 100 µM | > 100 µM | > 100 µM and 63.8 µM and 89 µM | > 100 µM and 66.9 µM | > 100 µM | > 100 µM | > 100 µM and 66.9 µM and 96.5 µM | > 100 µM and 66.9 µM | > 100 µM and 66.9 µM | > 100 µM and 66.9 µM and 54.5 µM | > 66.9 µM | > 66.9 µM | 58 µM and 24.3 µM and 28.4 µM | 32.4 µM | > 66.9 µM | 24.1 µM | 25.1 µM |  |  | 
Nc1ccccc1SC(C[N+](=O)[O-])c1ccc2c(c1)OCO2 (configuration not stated) | 24.3 µM | 18.8 µM | 4.82 µM | 7 µM | 13.3 µM | 30.2 µM | 4.42 µM | 3.2 µM | 4.38 µM | 25.9 µM |  |  |  |  |  |  |  |  |  | 
COc1cc(-c2nn(-c3ccc(NC(=O)c4ccc(Cl)c(C(F)(F)F)c4)cc3)cc2-c2ccncc2)ccc1Cl | > 100 µM | 0.948 µM | > 37.8 µM | 5.67 µM | > 65.1 µM | 8.81 µM | 6.47 µM | > 100 µM | 7.07 µM | 5.44 µM | 4.55 µM | 0.255 µM | 3.2 µM | 1.81 µM | 2.18 µM | 1.79 µM | 2.2 µM | 2.58 µM | 3.96 µM | 2.07 µM
C[C@]12CC[C@H](O)CC1=CC[C@@H]1C2CC[C@]2(C)C(=O)N(N)C(=O)CC12 (some centres not stated) | > 100 µM | > 100 µM | > 100 µM | > 100 µM | > 100 µM | > 100 µM | > 100 µM | > 100 µM | > 100 µM | > 100 µM |  |  |  |  |  |  |  |  |  | 
CC(C)C/C(CC(=O)CCC(=O)Nc1ccccc1[N+](=O)[O-])=N\NC(=O)c1cc2ccccc2cc1O | > 100 µM | 99.8 µM | > 100 µM | > 100 µM | > 100 µM | > 100 µM | > 100 µM | > 100 µM | > 100 µM | 80.5 µM |  |  |  |  |  |  |  |  |  | 
COC1=CC(=O)c2nc(-c3ccncc3)[nH]c2C1=O | > 100 µM | > 100 µM | > 100 µM | > 100 µM | > 100 µM | > 100 µM | > 100 µM | > 100 µM | > 100 µM | > 100 µM | > 100 µM | > 100 µM | > 100 µM | > 100 µM | > 100 µM | > 100 µM | > 100 µM | 31.4 µM | > 100 µM | > 100 µM
CC(C)CCC[C@@H](C)[C@H]1CC[C@H]2[C@@H]3CC=C4C[C@@H](C(C(=O)O)C(=O)O)CC[C@]4(C)[C@H]3CC[C@]12C | 8.91 µM | 0.153 µM | 1.63 µM | 2 µM | 0.245 µM | 0.904 µM | 0.938 µM | 1.12 µM | 0.747 µM | 0.187 µM | 0.237 µM | 0.0643 µM | 0.135 µM | 0.144 µM | 0.0786 µM | 0.353 µM | 0.0764 µM | 0.307 µM | 0.166 µM | 0.176 µM
